“Also recorded” adds a separate entry of the source.
Tests used:
[1] = system: small mesenteric arteries; assay: Acetylcholine-induced endothelium-dependent relaxation of phenylephrine pre-contracted small mesenteric arteries, isometric myograph (ex vivo); parameters: species or system Male Wistar rats
Experimental: Small mesenteric arteries were mounted in microvascular myographs (Danish Myotechnology, Aarhus, Denmark) using two 40 μm wires and stretched to their optimal diameter for isometric tension recordings, which corresponded to 0.9 times the estimated internal diameter at 100 mmHg of transmural pressure. PSS solution in the myograph bath was heated to 37° C. and continuously bubbled with 5% CO2 in air to maintain pH (7.4). The vessel viability was tested at the beginning of each experiment by measuring the vasoconstrictor responses to a solution with a high K^+ concentration (KPSS), equivalent to PSS except that NaCl was exchanged for KCl on an equimolar basis, giving a final concentration of 123.7 mmol/L K^+ and the presence of endothelium was confirmed by addition of acetylcholine (ACh) (10^−5) after pre-constriction with noradrenaline (5·10^−6 mol/L), arteries with less than 75% of relaxation were discarded.
Mesenteric arteries from rats of different age were incubated with (10^−6 mol/L) LDN-27219 or vehicle for 25 minutes and pre-contracted with phenylephrine (Phe) (10^−5 mol/L). Then cumulative addition of acetylcholine (ACh) caused the relaxation of the mesenteric arteries and the concentration-response curves were constructed.
Rats of 5-7 weeks age, about 12 weeks age, and more than 30 weeks of age were tested respectively. The results of the isometric tension studies are shown in FIGS. 1, A), B) and C) respectively, each representing a different their age group.
The small mesenteric arteries were prepared in the same way is described in example 1.

[2] = system: small mesenteric arteries; assay: Acetylcholine-induced relaxation of small mesenteric arteries from healthy and diabetic BKS mice (ex vivo); parameters: species or system male BKS(D)-Leprdb/JOrlRj mice
Experimental: In these experiments, healthy control mice of different ages and diabetic adult mice were used and the relaxation measurements were performed as described in Example 1.
Healthy male BKS(D)-Leprdb/JOrlRj heterozygous mice between 14-16 and 24-25 weeks of age, and diabetic homozygous mice between 16-17 weeks of age were tested respectively. The results of the isometric tension studies are shown in FIGS. 2, A), B) and C) respectively.

[3] = system: healthy male BKS(D)-Leprdb/JOrlRj heterozygous mice; assay: Erectile function in vivo, peak intracavernosal pressure (PICP) over MAP; conditions: preliminary in vivo studies
[4] = system: vascular smooth muscle cells (VSMCs) potassium currents; assay: Whole-cell patch-clamp of K+ outward currents in isolated vascular smooth muscle cells; type: cell-based, rat; conditions: LDN-27219 3·10^−5 mol/L 12 min; VA-5 5·10^−5 mol/L one hour incubation
Experimental: For isolation of VSMCs, rat mesenteric arteries were dissected as previously described, opened longitudinally and stored in ice-cold dissociation solution containing (mmol/L): 119 NaCl, 4.7 KCl, 1.18 KH2PO4, 1.17 MgSO4, 24.9 NaHCO3, 0.027 EDTA, and 11 glucose, pH=7.4. Arteries were then equilibrated during 10 min in a dissociation solution with bovine albumin serum (BSA; 1 mg/mL) at 37° C. and then exposed to the same solution supplemented with papain (0.5 mg/mL; Worthington Biochemical Corp., Lakewood, N.J., USA) and dithiothreitol (DTT; 1 mg/mL) at 37° C. for 8 min. Arteries were then washed in ice-cold dissociation solution and moved to dissociation solution containing BSA (1 mg/mL) and collagenase (0.7 mg/mL type F and 0.4 mg/mL type H; Worthington Biochemical Corp.) at 37° C. for 3 min. […]
Membrane currents were recorded under the whole-cell configuration of the patch-clamp technique using an Axon Multiclamp 700A amplifier (Axon instruments, Molecular Devices, CA, USA). […] Current-voltage relations were determined using 600 ms voltage ramps from −100 to 160 mV and a holding potential (Vh) of −65 mV for SMCs.
Amplitudes of K^+-outward currents were measured in control conditions and 12 min after the addition of LDN-27219 (3·10^−5 mol/L) to the extracellular solution by a perfusion system.

[5] = Pharmacokinetic study, single intravenous dose, non-compartmental model; type: in vivo; conditions: mouse, blood, single 2 mg/kg intravenous dose, mice
[6] = system: small subcutaneous arteries obtained from human biopsies; assay: Acetylcholine-induced relaxation of human small subcutaneous arteries; conditions: LDN-27219 3·10^−6 mol/L; acetylcholine 10^−8-10^−5 mol/L
Experimental: Human subcutaneous arteries were obtained from fat biopsies of the gluteal region from both male and female patients (30-70 years of age) with essential hypertension.
For ‘ex vivo’ studies, animals were randomly selected and euthanized by cervical dislocation and exanguination. The mesenteric arteries were immediately extracted and placed in 4° C. physiological saline solution (PSS, pH=7.4) of the following composition (mmol/L): 119 NaCl, 4.7 KCl, 1.18 KH2PO4, 1.17 MgSO4, 1.5 CaCl2), 24.9 NaHCO3, 0.026 EDTA and 5.5 glucose and small mesenteric arteries (internal diameters of 200-300 μm) were isolated. Human subcutaneous arteries (internal diameters of 300-400 μm) were dissected from the biopsies in the same conditions mentioned above for the mesenteric bed from rodents.
Small human subcutaneous arteries were obtained from fat biopsies from the gluteal region of hypertensive patients and prepared as described in Example 1. Concentration-response curves for LDN-27219 were constructed as described in Example 4 (FIG. 5B) and relaxation measurements were performed as described in Example 1.

Structure (SMILES): NNC(=O)CSc1nc2scc(-c3ccccc3)c2c(=O)n1-c1ccccc1 [LDN-27219]
- LDN-27219 potentiation of ACh-induced vasodilation in presence of irreversible TG2 inhibitor ([1]; LDN-27219 10^−6 mol/L with VA-5 10^−5 mol/L, ≈12 week rats): reduced or completely inhibited
- endothelium-dependent relaxation induced by acetylcholine, compared to vehicle ([1]; LDN-27219 10^−6 mol/L, 25 min incubation, Phe 10^−5 mol/L pre-contraction, rats of different age): more potent endothelium-dependent relaxation; also recorded: increased the response to ACh
- age dependence of the effect on acetylcholine-induced relaxation ([1]; LDN-27219 10^−6 mol/L, rats 6-7, ≈12 and >30 weeks old): more pronounced in old rats, than in young rats
- endothelium-dependent relaxation induced by acetylcholine, compared to vehicle ([2]; LDN-27219 3·10^−6 mol/L, healthy and diabetic mice): more potent endothelium-dependent relaxation
- dependence of the effect on age and diabetes ([2]; healthy mice 14-16 and 24-25 weeks, diabetic mice 16-17 weeks): more pronounced in older mice, and particularly pronounced in diabetic mice
- erectile function, peak intracavernosal pressure (PICP) over MAP [3]: increased erectile function
- potassium currents compared to control conditions [4]: potassium currents significantly bigger
- clearance [5]: 52.3 mL/min/kg
- half-life [5]: 4.89 h
- Vd ([5]; read-out: Volume of distribution): 21.4 L/kg
- endothelium-derived relaxation induced by acetylcholine, compared to vehicle [6]: improves the endothelium-derived relaxation

From patent publication US20210308138A1, “TISSUE TRANSGLUTAMINASE MODULATORS FOR MEDICINAL USE” (Aarhus Universitet, priority 2018, published 2021)
